Measurements as given in the supplement of paper PMC8960247.
± gives the standard error.

Tests used:
621-102 (TSC2-deficient) = assay: relative viability vs DMSO; higher = less cytotoxic; conditions: serum: 10% FBS, 72 h
621-103 (TSC2-rescued) = assay: as above; conditions: serum: 10% FBS, 72 h
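Further: immortalized renal angiomyolipoma cells stably carrying empty vector or TSC2, dosed in 384-well plates in DMEM, viability normalized to vehicle-treated wells within each plate.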

Structure (SMILES)	relative viability (621-102 (TSC2-deficient); 0.0001 µM) [%]	relative viability (621-102 (TSC2-deficient); 0.001 µM) [%]	relative viability (621-102 (TSC2-deficient); 0.01 µM) [%]	relative viability (621-102 (TSC2-deficient); 0.1 µM) [%]	relative viability (621-102 (TSC2-deficient); 1 µM) [%]	relative viability (621-102 (TSC2-deficient); 10 µM) [%]	relative viability (621-103 (TSC2-rescued); 0.0001 µM) [%]	relative viability (621-103 (TSC2-rescued); 0.001 µM) [%]	relative viability (621-103 (TSC2-rescued); 0.01 µM) [%]	relative viability (621-103 (TSC2-rescued); 0.1 µM) [%]	relative viability (621-103 (TSC2-rescued); 1 µM) [%]	relative viability (621-103 (TSC2-rescued); 10 µM) [%]
CC1=NN(c2ccc(C)c(C)c2)C(=O)/C1=N\Nc1cccc(-c2cccc(C(=O)O)c2)c1O	106.5 ± 0.35	104 ± 3.9	98.5 ± 2.5	108.4 ± 0.85	100.7 ± 0.44	83.7 ± 3.2	99.1 ± 1.1	103 ± 3.9	100.9 ± 0.81	99.8 ± 1	106.9 ± 0.69	90.7 ± 4
COc1cc2c(cc1O)CC[C@@H]1[C@@H]2CC[C@]2(C)[C@@H](O)CC[C@@H]12 [2-Methoxyestradiol]	121 ± 1.9	118 ± 3.8	112 ± 2.2	107 ± 3.3	80 ± 2.5	39.8 ± 1.9	107 ± 2.6	103.2 ± 0.73	98.66 ± 0.82	98.8 ± 2	82.5 ± 3.2	53.7 ± 0.91
C=CCNC1=C2C[C@@H](C)C[C@H](OC)[C@H](O)[C@@H](C)/C=C(\C)[C@H](OC(N)=O)[C@@H](OC)/C=C\C=C(/C)C(=O)NC(=CC1=O)C2=O [17-AAG (Geldanamycin)]	105 ± 1.4	100.9 ± 0.99	72.2 ± 2.9	25.7 ± 0.57	23.2 ± 0.81	25.3 ± 0.31	104.5 ± 0.96	104 ± 3	72.4 ± 3.8	14.3 ± 0.16	6.05 ± 0.096	6.31 ± 0.22
CO[C@H]1/C=C\C=C(/C)C(=O)NC2=CC(=O)C(NCCN(C)C)=C(C[C@@H](C)C[C@H](OC)[C@H](O)[C@@H](C)/C=C(\C)[C@@H]1OC(N)=O)C2=O [17-DMAG]	76.2 ± 3.6	58 ± 3.6	28.6 ± 0.72	21.7 ± 0.8	26.3 ± 0.3	16.31 ± 0.12	90.6 ± 3	41 ± 1.2	5.591 ± 0.017	5.287 ± 0.051	6.16 ± 0.36	3.07 ± 0.31
CC1(C)CCC(c2ccc(Cl)cc2)=C(CN2CCN(c3ccc(C(=O)NS(=O)(=O)c4ccc(N[C@H](CCN5CCOCC5)CSc5ccccc5)c(S(=O)(=O)C(F)(F)F)c4)cc3)CC2)C1 [ABT-263 (Navitoclax)]	114 ± 3.6	123 ± 7.2	116 ± 4.2	104 ± 3.3	118.5 ± 0.83	68.4 ± 0.82	100.9 ± 0.9	98.3 ± 2.4	98 ± 1.2	98.6 ± 2	97.65 ± 0.41	55.33 ± 0.17
COc1ccc(S(=O)(=O)Nc2cccnc2Nc2ccc(O)cc2)cc1 [ABT-751]	112 ± 3.7	114 ± 3.9	111 ± 1.8	110 ± 5.1	44.8 ± 1.6	49.55 ± 0.36	108 ± 3.8	108 ± 2.6	105 ± 3.2	98 ± 1.5	44.2 ± 2.2	44.8 ± 0.75
Cc1ccc(F)c(NC(=O)Nc2ccc(-c3cccc4[nH]nc(N)c34)cc2)c1 [ABT-869]	106 ± 3	100.3 ± 0.6	108 ± 1.6	108 ± 5.5	107 ± 2.2	86 ± 1.5	97.84 ± 0.17	100 ± 1.3	108 ± 6.2	107 ± 3.4	109.7 ± 0.82	80.4 ± 3.2
C[C@]1(c2nc3c(C(N)=O)cccc3[nH]2)CCCN1 [ABT-888]	129 ± 4.1	118 ± 1.3	124.3 ± 1.1	120 ± 1.6	122 ± 2.6	104 ± 3.6	104.8 ± 1	103.4 ± 0.84	104 ± 0.11	104.7 ± 0.51	105 ± 1.5	103 ± 1.3
CC(C)(C)c1cc(NC(=O)Nc2ccc(-c3cn4c(n3)sc3cc(OCCN5CCOCC5)ccc34)cc2)no1 [AC-220]	81.8 ± 3.2	84.77 ± 0.0088	87.3 ± 3.6	84.9 ± 5.7	70.1 ± 1.2	53.1 ± 3	96.29 ± 0.69	98 ± 1.9	99.4 ± 2.7	97.8 ± 2.8	76.5 ± 4.7	44.7 ± 1.2
N#C/C(=C\c1ccc(O)c(O)c1)C(=O)NCc1ccccc1 [AG-490]	99.7 ± 2.8	98.6 ± 3.6	92.6 ± 2.9	104 ± 2.4	99.2 ± 6.6	81 ± 1.6	109 ± 1.2	109 ± 3.9	108 ± 2	114 ± 1.2	107 ± 1	83.8 ± 3.9
Cc1csc(-c2nnc(Nc3ccc(Oc4ncccc4-c4ccnc(N)n4)cc3)c3ccccc23)c1 [AMG900]	84.8 ± 2	74.8 ± 1.5	75.4 ± 0.76	83.24 ± 0.43	78.91 ± 0.56	76 ± 2.4	88.9 ± 4.5	77.64 ± 0.67	71.5 ± 4.7	77.7 ± 1.1	65.8 ± 2.5	73.6 ± 1.5
CC(C)[C@H](C(=O)Nc1ccc(C(=O)NO)cc1)c1ccccc1 [AR-42 (HDAC-42)]	94.68 ± 0.44	109 ± 2.2	90.8 ± 3.5	82.4 ± 0.9	61.7 ± 2.2	41 ± 1.6	109 ± 2	98.16 ± 0.28	102 ± 6.3	83.4 ± 3.6	41.07 ± 0.079	3.41 ± 0.081
Clc1ccc(C2(c3ccc(-c4cn[nH]c4)cc3)CCNCC2)cc1 [AT7867]	98.8 ± 5.5	102 ± 6.2	105 ± 4.8	95.8 ± 1.7	85.23 ± 0.13	49.2 ± 3.2	89.1 ± 5.1	90.1 ± 2.4	90.2 ± 4.9	94.3 ± 6.7	75.1 ± 5.7	18.5 ± 2.6
COc1cc2nccc(Oc3ccc(NC(=O)Nc4cc(C)on4)c(Cl)c3)c2cc1OC [AV-951(Tivozanib)]	102 ± 2	96.6 ± 3.2	110 ± 5.9	111 ± 2	107 ± 2.7	77.33 ± 0.38	101.2 ± 0.14	104 ± 1.3	102.2 ± 0.42	99.26 ± 0.52	102 ± 2.4	48.2 ± 1.3
Cc1cc(Nc2nc(N[C@@H](C)c3ccc(F)cc3)c(C#N)cc2F)n[nH]1 [AZ 960]	99.6 ± 4	107 ± 3.6	103 ± 4.5	104 ± 2.7	47.1 ± 3.6	44.9 ± 4.3	99.9 ± 3.1	101 ± 1.2	94.7 ± 2.2	92.44 ± 0.84	62.82 ± 0.16	16.3 ± 0.85
